Laboratory results reported in the NIST ThermoML archive (doi:10.1016/j.jct.2017.10.012).

Settings: Liquid, Vibrating tube method

CCCC[n+]1cccc(C)c1.O=S(=O)([N-]S(=O)(=O)C(F)(F)F)C(F)(F)F
Settings	mass density [kg/m3]
278.15 K, 100 kPa	1431.5
278.15 K, 101.33 kPa	1430.9
278.15 K, 1000 kPa	1432.1
278.15 K, 10000 kPa	1438.3
278.15 K, 20000 kPa	1444.9
278.15 K, 40000 kPa	1457.2
278.15 K, 60000 kPa	1468.5
278.15 K, 80000 kPa	1479.1
278.15 K, 100000 kPa	1488.9
278.15 K, 120000 kPa	1498.1
279.15 K, 101.33 kPa	1429.9
280.15 K, 101.33 kPa	1428.9
281.15 K, 101.33 kPa	1427.9
282.15 K, 101.33 kPa	1427
283.15 K, 101.33 kPa	1426
284.15 K, 101.33 kPa	1425
285.15 K, 101.33 kPa	1424
286.15 K, 101.33 kPa	1423.1
287.15 K, 101.33 kPa	1422.1
288.15 K, 101.33 kPa	1421.2
289.15 K, 101.33 kPa	1420.2
290.15 K, 101.33 kPa	1419.3
291.15 K, 101.33 kPa	1418.3
292.15 K, 101.33 kPa	1417.4
293.15 K, 101.33 kPa	1416.5
294.15 K, 101.33 kPa	1415.6
295.15 K, 101.33 kPa	1414.6
296.15 K, 101.33 kPa	1413.7
297.15 K, 101.33 kPa	1412.8
298.15 K, 100 kPa	1413.3
298.15 K, 101.33 kPa	1411.9
298.15 K, 1000 kPa	1414
298.15 K, 10000 kPa	1420.4
298.15 K, 20000 kPa	1427.3
298.15 K, 40000 kPa	1440.1
298.15 K, 60000 kPa	1452
298.15 K, 80000 kPa	1463
298.15 K, 100000 kPa	1473.5
298.15 K, 120000 kPa	1483.1
299.15 K, 101.33 kPa	1410.9
300.15 K, 101.33 kPa	1410
301.15 K, 101.33 kPa	1409.1
302.15 K, 101.33 kPa	1408.2
303.15 K, 101.33 kPa	1407.3
304.15 K, 101.33 kPa	1406.4
305.15 K, 101.33 kPa	1405.4
306.15 K, 101.33 kPa	1404.5
307.15 K, 101.33 kPa	1403.6
308.15 K, 101.33 kPa	1402.7
309.15 K, 101.33 kPa	1401.8
310.15 K, 101.33 kPa	1400.9
311.15 K, 101.33 kPa	1399.9
312.15 K, 101.33 kPa	1399
313.15 K, 100 kPa	1399.8
313.15 K, 101.33 kPa	1398.1
313.15 K, 1000 kPa	1400.5
313.15 K, 10000 kPa	1407.3
313.15 K, 20000 kPa	1414.5
313.15 K, 40000 kPa	1428
313.15 K, 60000 kPa	1440.3
313.15 K, 80000 kPa	1451.7
313.15 K, 100000 kPa	1462.4
313.15 K, 120000 kPa	1472.1
314.15 K, 101.33 kPa	1397.2
315.15 K, 101.33 kPa	1396.3
316.15 K, 101.33 kPa	1395.4
317.15 K, 101.33 kPa	1394.5
318.15 K, 101.33 kPa	1393.6
319.15 K, 101.33 kPa	1392.7
320.15 K, 101.33 kPa	1391.8
321.15 K, 101.33 kPa	1390.9
322.15 K, 101.33 kPa	1390
323.15 K, 101.33 kPa	1389.2
324.15 K, 101.33 kPa	1388.2
325.15 K, 101.33 kPa	1387.4
326.15 K, 101.33 kPa	1386.5
327.15 K, 101.33 kPa	1385.6
328.15 K, 101.33 kPa	1384.7
329.15 K, 101.33 kPa	1383.8
